Measurements published in patent US9150632B2 (Indiana University Research and Technology Corporation, priority 2009, dated 2015).
Non-standard residues stand in square brackets, D forms with d. Residues, ends and D or L forms follow the SMILES beside them. Dab = NCC[C@H](N)C(=O)O; Aib = CC(C)(N)C(=O)O

Target: T1, glucagon receptor (Homo sapiens, UniProt P47871)
T1 construct: expressed in transfected cells; host or cells: HEK293
Test: Functional assay-cAMP synthesis, luciferase reporter in HEK293 cells, glucagon receptor
Format: cell-based
Design: % activity: concentration or dose not given beside the values

T1 sequence (P47871 26-477): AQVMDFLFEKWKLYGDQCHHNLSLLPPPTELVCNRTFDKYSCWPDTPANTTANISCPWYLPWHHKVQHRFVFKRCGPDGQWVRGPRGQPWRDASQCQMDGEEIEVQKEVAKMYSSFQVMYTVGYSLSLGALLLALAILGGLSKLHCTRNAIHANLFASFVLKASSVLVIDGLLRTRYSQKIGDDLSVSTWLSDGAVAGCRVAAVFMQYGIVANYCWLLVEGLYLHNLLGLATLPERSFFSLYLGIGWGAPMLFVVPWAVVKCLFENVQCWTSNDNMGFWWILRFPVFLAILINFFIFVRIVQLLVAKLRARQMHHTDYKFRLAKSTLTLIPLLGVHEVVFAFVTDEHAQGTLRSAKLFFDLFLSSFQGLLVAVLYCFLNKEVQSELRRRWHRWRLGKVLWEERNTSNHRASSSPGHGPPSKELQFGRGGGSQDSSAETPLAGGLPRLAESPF

In the case of `CCCC[C@H](NC(=O)[C@H](CC(C)C)NC(=O)[C@H](Cc1c[nH]c2ccccc12)NC(=O)[C@H](C)NC(=O)[C@@H](NC(=O)[C@H](Cc1ccccc1)NC(=O)[C@H](CCC(=O)O)NC(=O)[C@H](C)NC(=O)[C@H](C)NC(=O)[C@H](CCCNC(=N)N)NC(=O)[C@H](CCCNC(=N)N)NC(=O)[C@@H](NC(=O)[C@H](CC(=O)O)NC(=O)[C@H](CC(C)C)NC(=O)[C@H](Cc1ccc(O)cc1)NC(=O)[C@H](CCCCN)NC(=O)[C@H](CO)NC(=O)[C@H](Cc1ccc(O)cc1)NC(=O)[C@H](CC(=O)O)NC(=O)[C@H](CO)NC(=O)[C@@H](NC(=O)[C@H](Cc1ccccc1)NC(=O)[C@@H](NC(=O)CNC(=O)[C@H](CCC(N)=O)NC(=O)[C@H](CO)NC(=O)[C@@H](N)Cc1c[nH]cn1)[C@@H](C)O)[C@@H](C)O)[C@@H](C)O)C(C)C)C(=O)N[C@@H](CC(=O)O)C(=O)N[C@@H](CCC(=O)O)C(=O)O` [SEQ ID NO: 593], the “% activity” value (Table 26, glucagon receptor) is reported as 25%.
For `CCCC[C@H](NC(=O)[C@H](CC(C)C)NC(=O)[C@H](Cc1c[nH]c2ccccc12)NC(=O)[C@H](C)NC(=O)[C@@H](NC(=O)[C@H](Cc1ccccc1)NC(=O)[C@H](CCC(=O)O)NC(=O)[C@H](C)NC(=O)[C@H](C)NC(=O)[C@H](CCCNC(=N)N)NC(=O)[C@H](CCCNC(=N)N)NC(=O)[C@@H](NC(=O)[C@H](CC(=O)O)NC(=O)[C@H](CC(C)C)NC(=O)[C@H](Cc1ccc(O)cc1)NC(=O)[C@H](CCCCN)NC(=O)[C@H](CO)NC(=O)[C@H](Cc1ccc(O)cc1)NC(=O)[C@H](CC(=O)O)NC(=O)[C@H](CO)NC(=O)[C@@H](NC(=O)[C@H](Cc1ccccc1)NC(=O)[C@@H](NC(=O)CNC(=O)[C@H](CCCNC(C)=O)NC(=O)[C@H](CO)NC(=O)[C@@H](N)Cc1c[nH]cn1)[C@@H](C)O)[C@@H](C)O)[C@@H](C)O)C(C)C)C(=O)N[C@@H](CC(=O)O)C(=O)N[C@@H](CCC(=O)O)C(=O)O` [SEQ ID NO: 599], the “% activity” value (Table 26, glucagon receptor) was 7%.
With `CSCC[C@H](NC(=O)[C@H](CC(C)C)NC(=O)[C@H](Cc1c[nH]c2ccccc12)NC(=O)[C@H](C)NC(=O)[C@@H](NC(=O)[C@H](Cc1ccccc1)NC(=O)[C@H](CC(=O)O)NC(=O)[C@H](C)NC(=O)[C@H](C)NC(=O)[C@H](CCCNC(=N)N)NC(=O)[C@H](CCCNC(=N)N)NC(=O)C(C)(C)NC(=O)[C@H](CC(=O)O)NC(=O)[C@H](CC(C)C)NC(=O)[C@H](Cc1ccc(O)cc1)NC(=O)[C@H](CCCCN)NC(=O)[C@H](CO)NC(=O)[C@H](Cc1ccc(O)cc1)NC(=O)[C@H](CC(=O)O)NC(=O)[C@H](CO)NC(=O)[C@@H](NC(=O)[C@H](Cc1ccccc1)NC(=O)[C@@H](NC(=O)CNC(=O)[C@H](CCNC(C)=O)NC(=O)[C@H](CO)NC(=O)[C@@H](N)Cc1c[nH]cn1)[C@@H](C)O)[C@@H](C)O)C(C)C)C(=O)N[C@@H](CC(=O)O)C(=O)N[C@@H](CCC(=O)O)C(=O)O` [SEQ ID NO: 601] the “% activity” value (Table 26, glucagon receptor) was 86%.
With `CC(=O)NCC[C@H](NC(=O)[C@H](CO)NC(=O)[C@@H](N)Cc1c[nH]cn1)C(=O)NCC(=O)N[C@H](C(=O)N[C@@H](Cc1ccccc1)C(=O)N[C@H](C(=O)N[C@@H](CO)C(=O)N[C@@H](CC(=O)O)C(=O)N[C@@H](Cc1ccc(O)cc1)C(=O)N[C@@H](CO)C(=O)N[C@@H](CCCCN)C(=O)N[C@@H](Cc1ccc(O)cc1)C(=O)N[C@@H](CC(C)C)C(=O)N[C@@H](CC(=O)O)C(=O)NC(C)(C)C(=O)N[C@@H](CCCNC(=N)N)C(=O)N[C@@H](CCCNC(=N)N)C(=O)N[C@@H](C)C(=O)N[C@@H](CO)C(=O)N[C@@H](CC(=O)O)C(=O)N[C@@H](Cc1ccccc1)C(=O)N[C@H](C(=O)N[C@@H](CO)C(=O)N[C@@H](Cc1c[nH]c2ccccc12)C(=O)N[C@@H](CC(C)C)C(=O)N[C@@H](CC(C)C)C(=O)N[C@@H](CC(=O)O)C(=O)N[C@@H](CCC(=O)O)C(=O)O)C(C)C)[C@@H](C)O)[C@@H](C)O` (H-HS[Dab](Ac)GTFTSDYSKYLD[Aib]RRASDFVSWLLDE-OH; N-terminus and C-terminus assumed) the “% activity” value (Table 27, glucagon receptor) was 54%.
For `CSCC[C@H](NC(=O)[C@H](CC(C)C)NC(=O)[C@H](Cc1c[nH]c2ccccc12)NC(=O)[C@H](C)NC(=O)[C@@H](NC(=O)[C@H](Cc1ccccc1)NC(=O)[C@H](CC(=O)O)NC(=O)[C@H](C)NC(=O)[C@H](C)NC(=O)[C@H](CCCNC(=N)N)NC(=O)[C@H](CCCNC(=N)N)NC(=O)C(C)(C)NC(=O)[C@H](CC(=O)O)NC(=O)[C@H](CC(C)C)NC(=O)[C@H](Cc1ccc(O)cc1)NC(=O)[C@H](CCCCN)NC(=O)[C@H](CO)NC(=O)[C@H](Cc1ccc(O)cc1)NC(=O)[C@H](CC(=O)O)NC(=O)[C@H](CO)NC(=O)[C@@H](NC(=O)[C@H](Cc1ccccc1)NC(=O)[C@@H](NC(=O)CNC(=O)[C@H](CCC(N)=O)NC(=O)[C@H](CO)NC(=O)[C@@H](N)Cc1c[nH]cn1)[C@@H](C)O)[C@@H](C)O)C(C)C)C(=O)N[C@@H](CC(=O)O)C(=O)N[C@@H](CCC(=O)O)C(=O)O` [SEQ ID NO: 600], the “% activity” value (Table 26, glucagon receptor) was 15%.
`CCCC[C@H](NC(=O)[C@H](CC(C)C)NC(=O)[C@H](Cc1c[nH]c2ccccc12)NC(=O)[C@H](C)NC(=O)[C@@H](NC(=O)[C@H](Cc1ccccc1)NC(=O)[C@H](CCC(=O)O)NC(=O)[C@H](C)NC(=O)[C@H](C)NC(=O)[C@H](CCCNC(=N)N)NC(=O)[C@H](CCCNC(=N)N)NC(=O)[C@@H](NC(=O)[C@H](CC(=O)O)NC(=O)[C@H](CC(C)C)NC(=O)[C@H](Cc1ccc(O)cc1)NC(=O)[C@H](CCCCN)NC(=O)[C@H](CO)NC(=O)[C@H](Cc1ccc(O)cc1)NC(=O)[C@H](CC(=O)O)NC(=O)[C@H](CO)NC(=O)[C@@H](NC(=O)[C@H](Cc1ccccc1)NC(=O)[C@@H](NC(=O)CNC(=O)[C@H](CNC(N)=O)NC(=O)[C@H](CO)NC(=O)[C@@H](N)Cc1c[nH]cn1)[C@@H](C)O)[C@@H](C)O)[C@@H](C)O)C(C)C)C(=O)N[C@@H](CC(=O)O)C(=O)N[C@@H](CCC(=O)O)C(=O)O` [SEQ ID NO: 596] was tested, and the “% activity” value (Table 26, glucagon receptor) was 13%.
With `CC(=O)NCC[C@H](NC(=O)[C@H](CO)NC(=O)[C@@H](N)Cc1c[nH]cn1)C(=O)NCC(=O)N[C@H](C(=O)N[C@@H](Cc1ccccc1)C(=O)N[C@H](C(=O)N[C@@H](CO)C(=O)N[C@@H](CC(=O)O)C(=O)N[C@@H](Cc1ccc(O)cc1)C(=O)N[C@@H](CO)C(=O)N[C@@H](CCCCN)C(=O)N[C@@H](Cc1ccc(O)cc1)C(=O)N[C@@H](CC(C)C)C(=O)N[C@@H](CC(=O)O)C(=O)NC(C)(C)C(=O)N[C@@H](CCCNC(=N)N)C(=O)N[C@@H](CCCNC(=N)N)C(=O)N[C@@H](C)C(=O)N[C@@H](C)C(=O)N[C@@H](CC(=O)O)C(=O)N[C@@H](Cc1ccccc1)C(=O)N[C@H](C(=O)N[C@@H](C)C(=O)N[C@@H](Cc1c[nH]c2ccccc12)C(=O)N[C@@H](CC(C)C)C(=O)N[C@@H](CC(C)C)C(=O)N[C@@H](CC(=O)O)C(=O)N[C@H](C(=O)NCC(=O)N1CCC[C@H]1C(=O)N[C@@H](CO)C(=O)N[C@@H](CO)C(=O)NCC(=O)N[C@@H](C)C(=O)N1CCC[C@H]1C(=O)N1CCC[C@H]1C(=O)N1CCC[C@H]1C(=O)N[C@@H](CO)C(N)=O)[C@@H](C)O)C(C)C)[C@@H](C)O)[C@@H](C)O` (H-HS[Dab](Ac)GTFTSDYSKYLD[Aib]RRAADFVAWLLDTGPSSGAPPPS-NH2; N-terminus assumed) the “% activity” value (Table 27, glucagon receptor) was 113%.
In the case of `CCCC[C@H](NC(=O)[C@H](CC(C)C)NC(=O)[C@H](Cc1c[nH]c2ccccc12)NC(=O)[C@H](C)NC(=O)[C@@H](NC(=O)[C@H](Cc1ccccc1)NC(=O)[C@H](CCC(=O)O)NC(=O)[C@H](C)NC(=O)[C@H](C)NC(=O)[C@H](CCCNC(=N)N)NC(=O)[C@H](CCCNC(=N)N)NC(=O)[C@@H](NC(=O)[C@H](CC(=O)O)NC(=O)[C@H](CC(C)C)NC(=O)[C@H](Cc1ccc(O)cc1)NC(=O)[C@H](CCCCN)NC(=O)[C@H](CO)NC(=O)[C@H](Cc1ccc(O)cc1)NC(=O)[C@H](CC(=O)O)NC(=O)[C@H](CO)NC(=O)[C@@H](NC(=O)[C@H](Cc1ccccc1)NC(=O)[C@@H](NC(=O)CNC(=O)[C@H](CC[S+](C)[O-])NC(=O)[C@H](CO)NC(=O)[C@@H](N)Cc1c[nH]cn1)[C@@H](C)O)[C@@H](C)O)[C@@H](C)O)C(C)C)C(=O)N[C@@H](CC(=O)O)C(=O)N[C@@H](CCC(=O)O)C(=O)O` (stereo partly shown) [SEQ ID NO: 598], the “% activity” value (Table 26, glucagon receptor) is reported as 7%.
`CCCC[C@H](NC(=O)[C@H](CC(C)C)NC(=O)[C@H](Cc1c[nH]c2ccccc12)NC(=O)[C@H](C)NC(=O)[C@@H](NC(=O)[C@H](Cc1ccccc1)NC(=O)[C@H](CCC(=O)O)NC(=O)[C@H](C)NC(=O)[C@H](C)NC(=O)[C@H](CCCNC(=N)N)NC(=O)[C@H](CCCNC(=N)N)NC(=O)[C@@H](NC(=O)[C@H](CC(=O)O)NC(=O)[C@H](CC(C)C)NC(=O)[C@H](Cc1ccc(O)cc1)NC(=O)[C@H](CCCCN)NC(=O)[C@H](CO)NC(=O)[C@H](Cc1ccc(O)cc1)NC(=O)[C@H](CC(=O)O)NC(=O)[C@H](CO)NC(=O)[C@@H](NC(=O)[C@H](Cc1ccccc1)NC(=O)[C@@H](NC(=O)CNC(=O)[C@H](CSCNC(C)=O)NC(=O)[C@H](CO)NC(=O)[C@@H](N)Cc1c[nH]cn1)[C@@H](C)O)[C@@H](C)O)[C@@H](C)O)C(C)C)C(=O)N[C@@H](CC(=O)O)C(=O)N[C@@H](CCC(=O)O)C(=O)O` [SEQ ID NO: 594] was tested, and the “% activity” value (Table 26, glucagon receptor) was 33%.
For `CCCC[C@H](NC(=O)[C@H](CC(C)C)NC(=O)[C@H](Cc1c[nH]c2ccccc12)NC(=O)[C@H](C)NC(=O)[C@@H](NC(=O)[C@H](Cc1ccccc1)NC(=O)[C@H](CCC(=O)O)NC(=O)[C@H](C)NC(=O)[C@H](C)NC(=O)[C@H](CCCNC(=N)N)NC(=O)[C@H](CCCNC(=N)N)NC(=O)[C@@H](NC(=O)[C@H](CC(=O)O)NC(=O)[C@H](CC(C)C)NC(=O)[C@H](Cc1ccc(O)cc1)NC(=O)[C@H](CCCCN)NC(=O)[C@H](CO)NC(=O)[C@H](Cc1ccc(O)cc1)NC(=O)[C@H](CC(=O)O)NC(=O)[C@H](CO)NC(=O)[C@@H](NC(=O)[C@H](Cc1ccccc1)NC(=O)[C@@H](NC(=O)CNC(=O)[C@H](CCNC(C)=O)NC(=O)[C@H](CO)NC(=O)[C@@H](N)Cc1c[nH]cn1)[C@@H](C)O)[C@@H](C)O)[C@@H](C)O)C(C)C)C(=O)N[C@@H](CC(=O)O)C(=O)N[C@@H](CCC(=O)O)C(=O)O` [SEQ ID NO: 595], the “% activity” value (Table 26, glucagon receptor) was 19%.
